Reference: patent publication US8288377B2, “Inhibitors of the interaction between MDM2 and p53” (Janssen Pharmaceutica N.V., priority 2007, dated 2012)

What was measured:
[1] = test system: A2780 ovarian cancer cells; test: Proliferation assay (Alamar Blue); type: cell-based; details: Homo sapiens, 96 h, 4-day incubation, read-out: pIC50 (negative log value of the IC50-value) (converted)
Description: Cellular activity of the compounds of formula (I) was determined on A2780 tumour cells using a colorimetric assay for cell toxicity or survival (see example C.2).
The human A2780 ovarian cancer cells were a kind gift from Dr. T. C. Hamilton (Fox Chase Cancer Centre, Pennsylvania, U.S.A.). The cells were cultured in RPMI 1640 medium supplemented with 2 mM L-Glutamine, 50 μg/ml gentamicin and 10% fetal calf serum.
Resazurin was purchased from Aldrich (Prod. No. 199303). Potassium ferrocyanide, potassium ferricyanide, KH2PO4 and K2HPO4 were purchased from Sigma (Prod. Nos. P9387, P8131, P5655 and P8281, respectively).
Potassium Phosphate Buffer 0.1 M (PPB) was made as follows: 2.72 gram KH2PO4 and 13.86 gram K2HPO4 were dissolved in 500 ml milli-Q H2O, the pH was adjusted to pH 7.4 and the volume was brought to 1 liter with milli-Q H2O; the buffer was filter sterilised and stored at room temperature. Resazurin stock solution (PPB-A) was prepared fresh by dissolving 45 mg resazurin in 15 ml PBS. 30 mM potassium ferricyanide (PPB-B) was prepared by dissolving 0.987 gram potassium ferricyanide in 100 ml PPB. 30 mM potassium ferrocyanide (PPB-C) was prepared by dissolving 1.266 gram potassium ferrocyanide in 100 ml PPB.
Mixture of PPB-A, PPB-B and PPB-C was prepared by mixing equal volumes of the respective solutions. Resazurin work solution (herein termed “Alamar Blue” solution) was prepared by diluting said mixture 20× (vol/vol) in PPB and filter sterilising; the Alamar Blue solution could be kept at 4° C. for a maximum of 2 weeks.
For experiments in 384 wells plates the cells were seeded at a density of 5×10^3 cells/ml in Falcon 384-well culture plates (Life Technologies, Merelbeke, Belgium), black with clear bottom, in 45 μl culture medium. Cells were allowed to adhere to plastic for 24 hr. The tested compound was pre-diluted (1/50 in culture medium) and 5 μl pre-diluted compound was added to the wells. Following 4-day incubation, 10 μl of the Alamar Blue solution was added to each well and the cells were further incubated for 5 hrs (A2780) at 37° C. The fluorescence intensity was measured for each well with a Fluorescence plate reader (Fluorskan, Labsystems, 540 nm excitation and 590 nm emission)
The antiproliferative activity was calculated as percentage of remaining viable cells in treated versus control (untreated cells) conditions. Within an experiment, the result for each experimental condition is the mean of 3 replicate wells. When appropriate, the experiments were repeated to establish full concentration-response curves. When appropriate, IC50-values (concentration of the drug, needed to reduce cell growth to 50% of the control) were computed using probit analysis for graded data (Finney, D. J., Probit Analyses, 2nd Ed. Chapter 10, Graded Responses, Cambridge University Press, Cambridge 1962). Herein the effects of test compounds are expressed as pIC50 (the negative log value of the IC50-value) (see Table 4).

p53 in A2780 cells = test: p53 ELISA (preservation of p53 in A2780 cells); type: cell-based; details: Homo sapiens, treated with compound for 16 hours, read-out: p53-elisa LAD (lowest dose giving at least 140% of the value for p53 present in the control)
Description: The capacity of the compounds to preserve p53 in A2780 cells was measured with the p53 enzyme linked immunosorbent assay (ELISA). The p53 assay is a “sandwich” enzyme immunoassay employing two polyclonal antibodies. A polyclonal antibody, specific for the p53 protein, has been immobilized onto the surface of the plastic wells. Any p53 present in the sample to be assayed will bind to the capture antibody. The biotinylated detector polyclonal antibody also recognizes p53 protein, and will bind to any p53, which has been retained by the capture antibody. The detector antibody, in turn, is bound by horseradish peroxidase-conjugated streptavidin. The horseradish peroxidase catalyses the conversion of the chromogenic substrate o-phenylene diamine, the intensity of which is proportional to the amount of p53 protein bound to the plate. The coloured reaction product is quantified using a spectrophotometer. Quantitation is achieved by the construction of a standard curve using known concentrations of purified recombinant HIS tagged p53 protein (see example C.1).
A2780 cells (ATCC) were cultivated in RPMI 1640 supplemented with 10% fetal calf serum (FCS), 2 mM L-glutamine and gentamycin at 37° C. in a humidified incubator with 5% CO2.
A2780 cells were seeded at 20.000 cells per well in a 96 well plate, cultured for 24 hours and treated with compound for 16 hours at 37° C. in a humidified incubator. After incubation, the cells were washed once with phosphate-buffered saline and 30 μl, per well, low salt RIPA buffer (20 mM tris, pH7.0, 0.5 mM EDTA, 1% Nonidet P40, 0.5% DOC, 0.05% SDS, 1 mM PMSF, 1 μg/ml aprotinin and 0.5 μ/ml leupeptin) was added. Plates were placed on ice for 30 minutes to complete the lysis. p53 protein was detected in de lysates by using the sandwich ELISA, described below.
High binding polystyrene EIA/RIA 96 well plates (Costar 9018) were coated with the capture antibody pAb1801 (Abcam ab28-100) at a concentration of 1 μg/ml in coating buffer (0.1 M NaHCO3 pH8.2), 50 μl per well. The antibody was allowed to adhere overnight at 4° C. Coated plates were washed once with phosphate-buffered saline (PBS)/0.05% Tween 20 and 300 μl of blocking buffer (PBS, 1% bovine serum albumins (BSA)) was added, for an incubation period of 2 hours at room temperature. Dilutions of purified recombinant HIS tagged p53 protein, ranging from 3-200 ng/ml, were made in blocking buffer and used as standards.
Plates were washed twice with PBS/0.05% Tween 20 and blocking buffer or standards were added at 80 μl/well. To the standards, 20 μl of lysis buffer was added. The samples were added to the other wells at 20 μl lysate/well. After an overnight incubation at 4° C., plates were washed twice with PBS/0.05% Tween 20. Aliquots of 100 μl secondary polyclonal antibody p53(FL-393) (Tebubio, sc-6243) at a concentration of 1 μg/ml in blocking buffer were added to each well and allowed to adhere for 2 hours at room temperature. Plates were washed three times with PBS/0.05% Tween 20. Detection antibody anti-rabbit HRP (sc-2004, Tebubio) at 0.04 μg/ml in PBS/1% BSA was added and incubated for 1 hour at room temperature. Plates were washed three times with PBS/0.05% Tween 20 and 100 μl of substrate buffer was added (substrate buffer was prepared shortly before use by adding 1 tablet of 10 mg o-phenylene diamine (OPD) from Sigma and 125 μl 3% H2O2 to 25 ml OPD buffer: 35 mM citric acid, 66 mM Na2HPO4, pH5.6). After 5 to 10 minutes, colour reaction was stopped by adding 50 μl stop buffer (1 M H2SO4) per well. The absorbance at dual wavelengths of 490/655 nm was measured using a Biorad micro plate reader and the results were then analyzed.
For each experiment, controls (containing no drug) and a blank incubation (containing no cells or drugs) were run in parallel. The blank value was subtracted from all control and sample values. For each sample, the value of p53 (in absorbance units) was expressed as the percentage of the value for p53 present in the control. […]

Row | SMILES | IC50 [1] | minimal effective concentration (p53 in A2780 cells)
1 | Cc1cccc2c(CCN3CC(C)(C)Oc4cc(Nc5ccnc6c5CCC6O)ccc43)c[nH]c12 (stereo not drawn) [Compound 44] | 5.01 µM | > 10 µM
2 | Fc1cc(Nc2ccncc2)cc2c1N(CCc1c[nH]c3ccccc13)CCO2 [Compound 50] | 8.13 µM | > 10 µM
3 | CN1CCC2(CC1)CN(CCc1c[nH]c3ccccc13)c1ccc(Nc3ccncc3)cc1O2 [Compound 51] | 3.02 µM | > 10 µM
4 | Cc1cccc2c(CCN3CC(C)(C)Oc4cc(Nc5ccncc5)ccc43)c[nH]c12 [Compound 52] | 3.09 µM | > 10 µM
5 | Cc1cccc2c(CCN3CC(C)Oc4cc(Nc5ccncc5)ccc43)coc12 (stereo not drawn) [Compound 53] | 3.47 µM | > 10 µM
6 | CCC1(C)CN(CCc2c[nH]c3ccccc23)c2ccc(Nc3ccncc3)cc2O1 (stereo not drawn) [Compound 54] | 3.63 µM | > 10 µM
7 | c1ccc2c(CCN3CC4(CCCCC4)Oc4cc(Nc5ccncc5)ccc43)c[nH]c2c1 [Compound 55] | 3.72 µM | > 10 µM
8 | c1ccc2c(CCN3CC4(CCSCC4)Oc4cc(Nc5ccncc5)ccc43)c[nH]c2c1 [Compound 56] | ~4.79 µM | > 10 µM
9 | Cc1cccc2c(CCN3CC4(CCCCC4)Oc4cc(Nc5ccncc5)ccc43)c[nH]c12 [Compound 59] | 2.45 µM | > 10 µM
10 | CC1Oc2cc(Nc3ccncc3)ccc2N(CCc2c[nH]c3ccccc23)C1=O (stereo not drawn) [Compound 61] | > 10 µM | > 10 µM
11 | CC1(C)CN(CCc2c[nH]c3ccccc23)c2ccc(Nc3ccncc3)cc2O1 [Compound 62] | 5.37 µM | > 10 µM
12 | CC1(C)Oc2cc(Nc3ccncc3)ccc2N(CCc2c[nH]c3ccccc23)C1=O [Compound 63] | > 10 µM | > 10 µM
13 | COc1cccc2c(CCN3CCOc4cc(Nc5ccnc6c5CCC6O)ccc43)c[nH]c12 (stereo not drawn) [Compound 71] | 5.25 µM | > 10 µM
14 | CN1CCN(CCc2c[nH]c3ccccc23)c2ccc(Nc3ccnc4c3CCC4O)cc21 (stereo not drawn) [Compound 75] | ~5.25 µM | > 10 µM
15 | CN1CCN(CCc2c[nH]c3ccccc23)c2ccc(Nc3ccncc3)cc21 [Compound 76] | 3.31 µM | 10 µM
16 | CC1(C)CN(CCc2c[nH]c3ccccc23)c2ccc(Nc3ccnc4c3CCC4O)cc2O1 (stereo not drawn) [Compound 77] | 2.19 µM | 3 µM

More lines, main results first:

Row | IC50 [1] | SMILES | minimal effective concentration (p53 in A2780 cells)
17 | 6.31 µM | OCc1cc(Nc2ccc3c(c2)OC2(CCOCC2)CN3CCc2c[nH]c3ccccc23)ccn1 [Compound 45] | > 10 µM
18 | 6.92 µM | CCC1(C)CN(CCc2c[nH]c3ccccc23)c2ccc(Nc3ccnc(CO)c3)cc2O1 (stereo not drawn) [Compound 46] | > 10 µM
19 | ~6.46 µM | COc1cccc2c(CCN3CCOc4cc(Nc5ccncc5)ccc43)c[nH]c12 [Compound 47] | > 10 µM
20 | 3.47 µM | Cc1cccc2c(CCN3CCOc4cc(Nc5ccncc5)ccc43)c[nH]c12 [Compound 48] | > 10 µM
21 | 4.79 µM | c1ccc2c(CCN3CCOc4cc(Nc5ccncc5)ccc43)coc2c1 [Compound 49] | > 10 µM
22 | > 10 µM | CC1Oc2cc(Nc3ccnc(CO)c3)ccc2N(CCc2c[nH]c3ccccc23)C1=O (stereo not drawn) [Compound 65] | > 10 µM
23 | 1.41 µM | OCc1cc(Nc2ccc3c(c2)CCCN3CCc2c[nH]c3ccccc23)ccn1 [Compound 66] | 3 µM
24 | 5.01 µM | OCc1cc(Nc2ccc3c(c2)OCCN3CCc2csc3ccccc23)ccn1 [Compound 67] | 10 µM
25 | 5.25 µM | OCc1cc(Nc2ccc3c(c2)OCCN3CCc2coc3ccccc23)ccn1 [Compound 68] | > 10 µM
26 | > 10 µM | OCc1cc(Nc2cc(F)c3c(c2)OCCN3CCc2c[nH]c3ccccc23)ccn1 [Compound 69] | 10 µM
27 | 6.46 µM | OC1CCc2c(Nc3ccc4c(c3)OCCN4CCc3coc4ccccc34)ccnc21 (stereo not drawn) [Compound 70] | 10 µM
28 | 4.68 µM | Cc1cccc2c(CCN3CCOc4cc(Nc5ccnc(CO)c5)ccc43)c[nH]c12 [Compound 72] | > 10 µM
29 | 6.17 µM | CC1(C)CN(CCc2c[nH]c3ccccc23)c2ccc(Nc3ccnc(CO)c3)cc2O1 [Compound 78] | > 10 µM
30 | 4.17 µM | COc1cccc2c(CCN3CCOc4cc(Nc5ccnc(CO)c5)ccc43)c[nH]c12 [Compound 81] | > 10 µM
